We go through one molecule from patent publication US20120270237A9, “METHODS FOR THE IDENTIFICATION OF KINASE INTERACTING MOLECULES AND FOR THE PURIFICATION OF KINASE PROTEINS” (Cellzone AG, priority 2009, published 2012).

The inhibition is the share of the control response that was lost under treatment. High values mean a response far below the control, low ones a response near the control.

In one test the target is CDK9 (Homo sapiens, UniProt P50750). In words: Kinobeads competition binding, HeLa Placenta lysate mix. Also noted: capturing and identification of kinases from mixed HeLa placenta lysates; endogenous in cells; host or cells: mix of HeLa cell lysate and placenta tissue lysate. The settings on record: 10 μM free compound. The method, then:
(§1) To one aliquot of cell lysate 10 μM of the free compound (FIG. 3, CZC31326) was added and allowed to bind to proteins in the lysate. Then the affinity matrix with the immobilized compound was added to capture proteins that were not interacting with the previously added free compound. Beads were separated from the lysate and bead bound proteins were eluted in SDS sample buffer and subsequently separated by SDS-Polyacrylamide gel electrophoresis (FIG. 10). Suitable gel bands were cut out and subjected to in-gel proteolytic digestion with trypsin. The second lysate aliquot was processed identically, however no free compound was added (DMSO solvent control). Peptides originating from samples 1 and 2 were labeled with iTRAQ reagents (iTRAQ 114 and iTRAQ 117) and the combined samples were analyzed with a nano-flow liquid chromatography system coupled online to a tandem mass spectrometer (LC-MS/MS) experiment followed by iTRAQ reporter ion quantification in the MS/MS spectra as described in Example 2.

A further test concerns the target ARG (Homo sapiens, UniProt P42684). The test is described as above. Details: capturing and identification of kinases from mixed HeLa placenta lysates; endogenous in cells; host or cells: mix of HeLa cell lysate and placenta tissue lysate. The settings on record: 10 μM free compound. The method, then:
as §1

A further test addresses ALK2 (Homo sapiens, UniProt Q04771). The test is described as above. Details: capturing and identification of kinases from mixed HeLa placenta lysates; endogenous in cells; host or cells: mix of HeLa cell lysate and placenta tissue lysate. The settings on record: 10 μM free compound. The procedure:
as §1

The target of a further test is CDK2 (Homo sapiens, UniProt P24941). The test is described as above. Details: capturing and identification of kinases from mixed HeLa placenta lysates; endogenous in cells; host or cells: mix of HeLa cell lysate and placenta tissue lysate. The settings on record: 10 μM free compound. The procedure: as §1
Another test addresses CK2a2 (Homo sapiens, UniProt P19784). The description is as above. Also noted: capturing and identification of kinases from mixed HeLa placenta lysates; endogenous in cells; host or cells: mix of HeLa cell lysate and placenta tissue lysate. As to conditions: 10 μM free compound. The method, then:
as §1

In a further test the target is MST2 (Homo sapiens, UniProt Q13188). The test is described as above. As to conditions: 10 μM free compound. Details: capturing and identification of kinases from mixed HeLa placenta lysates; endogenous in cells; host or cells: mix of HeLa cell lysate and placenta tissue lysate. The procedure: as §1
The target in a further test is T1, IKKe (Homo sapiens, UniProt Q14164).
T1 sequence (Q14164 1-716): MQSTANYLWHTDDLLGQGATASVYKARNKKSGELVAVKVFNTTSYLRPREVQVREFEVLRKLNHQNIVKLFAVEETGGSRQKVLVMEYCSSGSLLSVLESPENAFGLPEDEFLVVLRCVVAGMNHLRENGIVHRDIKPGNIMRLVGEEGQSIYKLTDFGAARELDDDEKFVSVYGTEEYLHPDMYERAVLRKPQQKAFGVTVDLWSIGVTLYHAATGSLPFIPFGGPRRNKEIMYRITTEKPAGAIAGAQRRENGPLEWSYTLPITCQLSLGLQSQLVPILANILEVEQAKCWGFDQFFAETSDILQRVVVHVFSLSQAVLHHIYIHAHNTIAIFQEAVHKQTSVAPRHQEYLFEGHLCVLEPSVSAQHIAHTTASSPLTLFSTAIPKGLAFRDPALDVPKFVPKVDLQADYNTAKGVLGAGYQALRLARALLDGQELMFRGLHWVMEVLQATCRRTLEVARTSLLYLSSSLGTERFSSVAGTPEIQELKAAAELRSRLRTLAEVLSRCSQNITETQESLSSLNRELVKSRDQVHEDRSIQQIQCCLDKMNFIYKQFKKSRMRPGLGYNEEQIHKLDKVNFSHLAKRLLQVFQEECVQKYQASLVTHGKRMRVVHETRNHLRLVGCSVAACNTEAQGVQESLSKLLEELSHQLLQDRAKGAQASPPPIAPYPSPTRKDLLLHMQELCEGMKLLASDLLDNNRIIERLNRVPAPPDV
In words: Kinobeads competition binding, L-363 cell lysate. The settings on record: 10 μM free compound, L-363 lysate. Details: endogenous in cells; host or cells: L-363 (treated with MG132 before harvest). The procedure:
as §1, with “8).” for “10).”
For this experiment the human plasma cell leukaemia line L-363 was used (German Collection of Microorganisms and Cell Cultures, DSMZ number ACC49, Braunschweig, Germany). Cells were treated for three hours with 20 μM of the proteasome inhibitor MG132 (Z-Leu-Leu-Leu-al, Sigma C2211) prior to cell harvesting.

In the case of `CS(=O)(=O)Nc1ccccc1Nc1nc(Nc2cccc(OCCN)c2)ncc1Cl` [CZC31326, N-(2-(2-(3-(2-aminoethoxy)phenylamino)-5-chloropyrimidin-4-ylamino)phenyl)methanesulfonamide], the inhibition at 10 µM is 95.3% at CDK9; 91.2% at ARG; 94.3% on ALK2; 95.4% on CK2a2; 93.9% at MST2; 89.4% at IKKe. This molecule also displayed a Competition % at CDK2 of 93%.
